Reference: US12337000B2, “Therapeutic modulators of the reverse mode of ATP synthase” (priority 2017, dated 2025)
Entries after “also recorded” stand apart in the source; their conditions may differ. Where a name gives a salt, the structure may show the parent alone. Read-outs that look alike come from different tables or passages of the source.

Key:
[1] = target: T1, F1F0 ATP hydrolase (Bos taurus, UniProt P00829+P19483); conditions: cited from earlier work
T1 construct: from tissue; host or cells: sub-mitochondrial particles (SMPs)

[2] = tested on: 59 cancer cell lines (NCI-60); test: NCI-60 one-dose in vitro assay; format: cell-based, human
Text: FIGS. 1, 2, 3, 4, 5, 6, 7, 8 show results from the NCI-60 one-dose in vitro assay at the Developmental Therapeutics Program (DTP), at the National Cancer Institute (NCI, Bethesda, MD, USA). Its protocol is well known to those of the art, and it tests the effect, if any, of a test compound on the growth/survivability of a cancer cell line as compared to the no compound control. […] However, a constant is that there is always representative cell lines from leukemia, melanoma and cancers of the lung, colon, brain, ovary, breast, prostate and kidney. In a one-dose NCI compound test report, NCI report a number for each cell line, which they call “Growth Percent”, which is its growth relative to the no-compound control, and relative to the time zero number of cells. This reported parameter allows detection of both growth inhibition (values between 0 and 100) and lethality (values less than 0). For example, an NCI “Growth Percent” value of 100 means no growth inhibition. Value of 40 means 60% growth inhibition. Value of 0 means no net growth over the course of the experiment. Value of −40 means 60% lethality. Value of −100 means all cells are dead. I don't present NCI one-dose data in this original format. Instead, if the NCI “Growth Percent” value for a cell is positive, it is manipulated: [100 minus this original NCI-60 “Growth Percent” data point], to yield the percentage “Growth Inhibition”. If the original NCI “Growth Percent” value for a cell is negative, it is made positive to be the percentage of original cancer cells (at time zero) killed: “Percentage Killed” {and in these cases, of course, all growth has been inhibited, so percentage “Growth Inhibition” is then specified to be 100% for this cancer cell line}. In my one-dose figures, “Growth Inhibition” (0-100%) is presented on the x-axis and, if applicable, “Percentage Killed” (0-100%) further along on the x-axis. The latter is applicable when there is not just cancer growth inhibition but a reduction in the number of cancer cells from the start time i.e. when the compound is not merely slowing cancer growth, but is actively reducing the number of cancer cells from the starting number. In cases where there is only growth inhibition, only “Growth inhibition” is presented on the x-axis.
NCI-60 tests are performed at a controlled temperature of 37° C..
To perform the anti-cancer testing reported: BMS-199264 hydrochloride was purchased from Sigma-Aldrich. BTB06584 was purchased from AdooQ Bioscience, Irvine, CA, USA. Compounds 19a (separated into 6a and 6b stereoisomers) and 31 were synthesized by reaction schemes disclosed herein. Almitrine dimesylate was purchased from Ak Scientific, Palo Alto, CA, USA.

[3] = target: T2, F1F0-ATP hydrolysis (Homo sapiens, UniProt P06576+P25705); conditions: cited from earlier work
T2 construct: BTB06584 potency information (is not an EC50) is from a whole cell study [13]; endogenous in cells

[4] = cited from earlier work
[5] = cited from earlier work; remark: listed apart in the source
[6] = from [8], Formula (II), read-out: EC50 F1F0 ATP hydrolase

SMILES | EC50 [1, 6] [nM] | further results
N#CN=C(Nc1ccccc1Cl)NC(Cn1ccnc1)c1ccc(Cl)cc1Cl (centres unmarked) [2-Cl, CN] |  | EC50 ([1]; Further Examples [5], Formula (I), read-out: EC50 F1F0 ATP hydrolase): 2230 nM
O=S(=O)(c1ccccc1)N1Cc2ccccc2N(Cc2cnc[nH]2)C(CCc2ccccc2)C1 (centres unmarked) [Ph, SO2,5-yl] | 282 | 
N#Cc1ccc(S(=O)(=O)N2Cc3ccccc3N(Cc3cnc[nH]3)C(CCc3ccccc3)C2)cc1 (centres unmarked) [4-CN—Ph, SO2,5-yl] | 255 | 
O=S(=O)(c1ccc(F)cc1)N1Cc2ccccc2N(Cc2c[nH]cn2)C(CCc2ccccc2)C1 (centres unmarked) [4-F—Ph, SO2,5-yl] | 221 | 
O=S(=O)(c1cccc2nonc12)N1Cc2ccccc2N(Cc2cnc[nH]2)C(CCc2ccccc2)C1 (centres unmarked) [Benzofurazan-7-yl, SO2,5-yl] | 1780 | 
N#Cc1ccc(S(=O)(=O)N2Cc3ccccc3N(Cc3c[nH]cn3)C(CCc3ccccc3)C2)c(Cl)c1 (centres unmarked) [2-Cl-4-CN—Ph, SO2,5-yl] | 939 | 
O=C(Oc1cc(S(=O)(=O)c2ccccc2)ccc1[N+](=O)O)c1ccc(Cl)cc1 [BTB06584] |  | anti-cancer activity (in words) ([2]; 10 μM): none and No anti-cancer activity; anti-cancer activity (in words) ([2]; 100 μM): observed; also recorded: Anti-cancer activity; inhibitory potency for F1F0-ATP hydrolysis (in words) ([3]; 10 μM [13]): none; concentration required to inhibit F1F0-ATP hydrolysis ([3]; whole cell study [13], not an EC50): > 100 µM
N.N.O=C([O-])C1(C(=O)[O-])CCC1.[Pt+2] [carboplatin] |  | LD50 ([4]; mice, intraperitoneal injection (IP)): 118 mg/kg
Cc1nc(CN2c3ccccc3CN(S(=O)(=O)c3ccc(F)cc3)CC2CCc2ccccc2)c[nH]1 (centres unmarked) [4-F—Ph, SO2,2-Me-5-yl] | 9620 | 
COc1ccc(S(=O)(=O)N2Cc3ccccc3N(Cc3c[nH]cn3)C(CCc3ccccc3)C2)cc1 (centres unmarked) [4-OMe—Ph, SO2,5-yl] | 77 | 
O=S(=O)(N1Cc2ccccc2N(Cc2c[nH]cn2)C(CCc2ccccc2)C1)C(F)(F)F (centres unmarked) [CF3, SO2,5-yl] | 77 | 
CC1(C)Oc2ccc(S(=O)(=O)N3CCCCC3)cc2[C@@H](N(Cc2ncc[nH]2)c2ccc(Cl)cc2)[C@@H]1O.Cl [BMS-199264 hydrochloride] |  | anti-cancer activity (in words) ([2]; 10 μM): Anti-cancer activity; anti-cancer activity (in words) ([2]; 100 μM): Anti-cancer activity
CN(C)CCCN1c2ccccc2CCc2ccc(Cl)cc21 [clomipramine HCl] |  | LD50 {mouse, IV} ([4]; mouse, in vivo, iv): 22 mg/kg
O=S(=O)(c1ccc(O)cc1)N1Cc2ccccc2N(Cc2cnc[nH]2)C(CCc2ccccc2)C1 (centres unmarked) [4-OH—Ph, SO2,5-yl] | 667 | 
O=[N+]([O-])c1cccc(S(=O)(=O)N2Cc3ccccc3N(Cc3cnc[nH]3)C(CCc3ccccc3)C2)c1 (centres unmarked) [3-NO2—Ph, SO2,5-yl] | 423 | 
CC(C)(C)c1ccc(S(=O)(=O)N2Cc3ccccc3N(Cc3c[nH]cn3)C(CCc3ccccc3)C2)cc1 (centres unmarked) [4-t-Bu—Ph, SO2,5-yl] | 8 | 
O=S(=O)(c1cccc2cccnc12)N1Cc2ccccc2N(Cc2c[nH]cn2)C(CCc2ccccc2)C1 (centres unmarked) [Quinolin-8-yl, SO2,5-yl] | 2930 | 
CC[C@H]1/C=C/C=C/C[C@@H](C)[C@H](O)[C@@](C)(O)C(=O)[C@@H](C)[C@H](O)[C@@H](C)C(=O)[C@@H](C)[C@H](O)[C@@H](C)/C=C/C(=O)O[C@@H]2[C@H](C)[C@H](CC1)O[C@]1(CC[C@H](C)[C@H](C[C@@H](C)O)O1)[C@H]2C [oligomycin] |  | time within which healthy rats are killed ([5]; 1 mg/kg intraperitoneal, n=10 [15]): ≤ 48 h; LD33 ([5]; healthy rats, intraperitoneal injection [15]): 0.5 mg/kg
CC(C)(C)c1ccc(S(=O)(=O)N2Cc3ccccc3N(Cc3ncc[nH]3)C(CCc3ccccc3)C2)cc1 (centres unmarked) [4-t-Bu—Ph, SO2,2-yl] | > 10000 | 
O=S(=O)(c1cc(Cl)ccc1Cl)N1Cc2ccccc2N(Cc2cnc[nH]2)C(CCc2ccccc2)C1 (centres unmarked) [2,5-di-Cl—Ph, SO2,5-yl] | 158 | 
O=S(=O)(Cc1ccccc1)N1Cc2ccccc2N(Cc2c[nH]cn2)C(CCc2ccccc2)C1 (centres unmarked) [Bn, SO2,5-yl] | 2410 | 
CC(C)(C)c1ccc(CN2Cc3ccccc3N(Cc3cnc[nH]3)C(CCc3ccccc3)C2)cc1 (centres unmarked) [4-t-Bu—Ph, CH2,5-yl] | 2140 | 
Cc1nc[nH]c1CN1c2ccccc2CN(S(=O)(=O)c2ccc(F)cc2)CC1CCc1ccccc1 (centres unmarked) [4-F—Ph, SO2,4-Me-5-yl] | 151 | 
O=S(=O)(c1cccc2ccccc12)N1Cc2ccccc2N(Cc2cnc[nH]2)C(CCc2ccccc2)C1 (centres unmarked) [Naphth-1-y1, SO2,5-yl] | 338 | 
Cc1nc[nH]c1CN1c2ccccc2CN(Cc2ccc(C(C)(C)C)cc2)CC1CCc1ccccc1 (centres unmarked) [4-t-Bu—Ph, CH2,4-Me-5-yl] | 2350 | 
O=S(=O)(c1cccs1)N1Cc2ccccc2N(Cc2cnc[nH]2)C(CCc2ccccc2)C1 (centres unmarked) [Thiophen-2-yl, SO2,5-yl] | 636 | 
N#Cc1cccc(C(=O)/N=C(\Nc2ccc(Cl)cc2)NC(Cn2ccnc2)c2ccc(Cl)cc2Cl)c1 (centres unmarked) [Compound 19a] |  | EC50 ([1]; SMP studies in [5-8], read-out: EC50 F1F0 ATP hydrolysis / hydrolase): 33 nM
